In experiment [1] the target is T1, Human IL-17A (Homo sapiens, UniProt Q16552).
T1 sequence (Q16552 20-155 limits assumed): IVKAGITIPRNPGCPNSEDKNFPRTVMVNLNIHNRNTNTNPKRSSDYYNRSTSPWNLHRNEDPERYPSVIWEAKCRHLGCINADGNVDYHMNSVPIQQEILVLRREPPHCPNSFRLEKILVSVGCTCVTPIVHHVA
The experiment is described as follows: IL-17A enzyme-linked immunosorbent assay (competitive ELISA, IL-17A/IL-17Ra receptor-ligand binding). The conditions noted are these: human IL-17A coated plate, human IL-17Ra, read-out: IC50, inhibitory activity of compounds on human IL-17A. Details: purchased Sino Biological Inc. 12047-H07B. In short, it runs like this: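 Competitive ELISA with plates coated with human IL-17A at 0.2 μg/ml, blocked with 5% skim milk. Compound pre-incubated with IL-17A 10 min at 25 °C, then 16 nM IL-17Ra stock added for 30 min. Bound receptor detected by anti-Fc HRP/TMB, A450. IC50 from variable-slope fit of blank-corrected residual activity.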
A general note: An ELISA detects its analyte on a solid surface through an enzyme-linked reagent.

A further experiment addresses T2, Human IL-17AF (Homo sapiens, UniProt Q16552+Q96PD4).
T2 construct: purchased Sino Biological Inc. CT047-H08H
T2 sequence (Q16552 24-155): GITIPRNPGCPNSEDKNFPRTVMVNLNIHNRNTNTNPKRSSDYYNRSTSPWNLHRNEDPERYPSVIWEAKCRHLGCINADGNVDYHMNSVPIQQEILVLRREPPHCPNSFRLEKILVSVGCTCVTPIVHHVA
T2 sequence (Q96PD4 31-163): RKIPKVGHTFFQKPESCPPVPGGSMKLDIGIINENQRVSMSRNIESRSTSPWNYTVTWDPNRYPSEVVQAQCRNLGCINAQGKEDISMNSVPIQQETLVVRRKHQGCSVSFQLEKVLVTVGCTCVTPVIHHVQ
The experiment is described as follows: IL-17AF ELISA (competitive ELISA, IL-17AF/IL-17Ra receptor-ligand binding). Conditions: human IL-17AF coated plate, human IL-17Ra, read-out: IC50, inhibitory activity of compounds on human IL-17AF. How it is done: Experiment Example 2 IL-17AF ELISA
The inhibitory effects of human IL-17AF inhibitors on receptor-ligand binding were quantitatively determined by a competitive ELISA.
The ELISA was performed through the following steps.
Human IL-17AF (Sino Biological Inc., Cat #CT047-H08H) was diluted with coating buffer (50 mM PBS, pH 7.4) to reach a concentration of 0.625 μg/ml. 100 μL of the resulting solution was added to each well of a 96-well plate, and the plate was incubated at 37° C. for 30 min. In the blank group, 100 μL of coating buffer was added instead of the IL-17AF solution.
The plate was washed four times with 10 mM PBST (pH 7.4). 200 μL was used per well for each wash. After the final wash, the plate was tapped dry on absorbent paper.
Fresh 5% (w/v) skim milk solution was prepared before the experiment. For example, 5 grams of skim milk powder (Bio-Rad, Cat #170-6404) was completely dissolved in 100 mL of 10 mM PBST. 200 μL of the 5% (w/v) skim milk solution was added to each well, and the plate was incubated on a shaker at 25° C. for 30 min.
(S4) Preparation of 100× to-be-Tested Compound Solutions
During step (S3), the to-be-tested compound solutions were prepared. Each powdered compound was dissolved in dimethyl sulfoxide (DMSO) to reach a stock concentration of 10 mM. The to-be-tested compound solutions were then serially diluted four-fold with DMSO to obtain nine concentrations ranging from […].
(S6) Pre-Incubation of IL-17AF with to-be-Tested Compound Solutions
89 μL of PBST and 1 μL of each of the to-be-tested compound solutions were added to each well and mixed. The plate was pre-incubated at 25° C. for 10 min. In the blank group and the control group, 1 μL of DMSO was added instead of the to-be-tested compound solutions.
(S7) Incubation with Human IL-17Ra
10 μL of 100 nM IL-17Ra (Sino Biological Inc., Cat #10895-H03H) was added to each well, followed by incubation on a shaker at 25° C. for 30 min. The receptor solution was prepared in 10 mM PBST.
(S9) Incubation with Horseradish Peroxidase-Conjugated Antibody
100 μL of mouse anti-Fc tag HRP-conjugated antibody (Sino Biological Inc., Cat #10702-MM01T-H) was added to each well. The plate was incubated on a shaker at 25° C. for 30 min. The antibody was diluted with 5% (w/v) skim milk solution at 1:5,000 (v/v).
100 μL of TMB substrate solution (BD, Cat #555214) was added to each well. Substrate A and substrate B were freshly mixed at a volume ratio of 1:1 before use. The plate was incubated in the dark at 25° C. for 5-15 min.
(S12) Termination and Detection
The color reaction was terminated by addition of 2.5 M HCl. Absorbance was measured at 450 nm using a BMG PHERStar microplate reader.
(S13) Calculation of Half-Maximal Inhibitory Concentration (IC50)
The relative percent residual activity at each compound concentration was calculated according to Equation 1. The IC50 value of each test compound was then calculated in GraphPad 6 using the equation for log(inhibitor) versus normalized response with variable slope, as shown in Equation 2.
relative percent residual activity (%)=[(absorbance of sample−absorbance of blank group)/(absorbance of control group−absorbance of blank group)]%. Equation 1: […]
The compounds prepared in the Examples were tested for IL-17AF inhibitory activity according to the above method.

Experiment [2] deals with T1, Human IL-17A. The experiment is described as follows: Inhibition of human IL-17A protein-induced GROα/CXCL1 production in HT-29 cells. It is filed as cell-based. Details: purchased R&D 317-ILB; host or cells: added exogenously to HT-29 cells. Conditions: 30 ng/mL human IL-17A protein, 48 h, GROα in supernatant by ELISA kit, read-out: Inhibitory IC50 of compounds on HT-29 cell GROα/CXCL1. The procedure:
Experiment Example 3 Inhibition of Human IL-17A Protein-Induced GROα/CXCL1 Production in HT-29 Cells by Compounds
This assay was conducted to evaluate the ability of the compounds to inhibit human IL-17A protein-induced production of the chemokine growth-regulated oncogene alpha/C-X-C motif chemokine ligand 1 (GROα/CXCL1) in HT-29 cells.
Human colorectal adenocarcinoma epithelial HT-29 cells (Chengdu Zhongyuan Gongchuang Technology Co., Ltd.) were seeded into a 96-well plate at a density of 5×10^4 cells per well and were cultured overnight in an incubator at 37° C.
30 ng/mL of human IL-17A protein (R&D, #317-ILB) was mixed with gradient concentrations of the IL-17A small-molecule inhibitor, or with […] of a positive control IL-17A antibody (R&D, #AF-317-NA). These mixtures were incubated at 37° C. for 1 h and were then added to the plate. The mixtures were co-incubated with the HT-29 cells at 37° C. for 48 h. Thereafter, the level of GROα in the cell culture supernatant was determined using a GROα ELISA kit (Cisbio, #62HCXC1PEG).
The inhibitory activity of each compound was expressed as the half-maximal inhibitory concentration (IC50) for inhibition of GROα/CXCL1 production in HT-29 cells.

Where only a bound is given, the exact number is not on record here.

In the case of `CCn1nccc1C(=O)N[C@H](C(=O)Nc1cc2c(cc1F)-c1c(n[nH]c1C)CC(C)OC2)C(C1CC1)C1CC1` (single isomer, unassigned) [compound 119a], the IC50 at Human IL-17A [1] is no more than 50 nM; on Human IL-17AF it was 100 to 500 nM.
For the compound `CCn1nccc1C(=O)N[C@H](C(=O)Nc1cc2c(cc1F)-c1c(n[nH]c1C)CC(C)OC2)C(C1CC1)C1CC1` (single isomer, unassigned) [compound 119b], the IC50 at Human IL-17A [1] is no more than 50 nM; at Human IL-17AF it was 100 to 500 nM.
As for `Cc1[nH]nc2c1-c1cc(F)c(NC(=O)[C@@H](NC(=O)c3ccnn3C(C)C)C(C3CC3)C3CC3)cc1CN(C(C)C(F)(F)F)C(=O)C2` (single isomer, unassigned) [compound 186b], the IC50 is no more than 50 nM at Human IL-17A [1] and 100 to 500 nM at Human IL-17AF.
In the same order, the values of `[2H]C([2H])([2H])n1nccc1C(=O)N[C@H](C(=O)Nc1ccc2c(c1)COCCc1n[nH]c(C)c1-2)C(C1CC1)C1CC1` [compound 7] are 50 to 150 nM and 100 to 500 nM.
Turning to `CCn1nccc1C(=O)N[C@H](C(=O)Nc1ccc2c(c1)COCCc1n[nH]c(C)c1-2)C1CCCCC1` [compound 8], the IC50 on Human IL-17A [1] lay in the range of 50 to 150 nM; on Human IL-17AF, 100 to 500 nM.
The corresponding values for `CCn1nccc1C(=O)N[C@H](C(=O)Nc1ccc2c(c1)COCCc1n[nH]c(C)c1-2)C1c2ccc(F)cc2OCC12CC2` (some centres unmarked) [compound 9] are no more than 50 nM and 100 to 500 nM.
In the same order, the values of `CCn1nccc1C(=O)N[C@H](C(=O)Nc1ccc2c(c1)COCCc1n[nH]c(C)c1-2)[C@H]1CC[C@H](C)CC1` [compound 10] are no more than 50 nM and 100 to 500 nM.
With `Cc1[nH]nc2c1-c1cc(F)c(NC(=O)[C@@H](NC(=O)c3ccnn3C3CC3)C(C3CC3)C3CC3)cc1COCC2` [compound 19], the IC50 at Human IL-17A [1] is no more than 50 nM; on Human IL-17AF, 100 to 500 nM.
The corresponding values for `Cc1[nH]nc2c1-c1ccc(NC(=O)[C@@H](NC(=O)c3ccnn3C(C)C)C(C3CC3)C3CC3)cc1CN(C)CC2` [compound 24] are 50 to 150 nM and 100 to 500 nM.
Regarding `CCn1nccc1C(=O)N[C@H](C(=O)Nc1ccc2c(c1)CN(C)CCc1n[nH]c(C)c1-2)C(C1CC1)C1CC1` [compound 25], the IC50 lay within 50 to 150 nM at Human IL-17A [1] and 100 to 500 nM at Human IL-17AF.
The corresponding values for `Cc1[nH]nc2c1-c1ccc(NC(=O)[C@@H](NC(=O)c3ccnn3C)C(C3CC3)C3CC3)cc1CN(C)CC2` [compound 26] are 50 to 150 nM and 100 to 500 nM.
In the same order, the values of `CCc1nocc1C(=O)N[C@H](C(=O)Nc1cc2c(cc1F)-c1c(n[nH]c1C)CCOC2)C(C1CC1)C1CC1` [compound 33] are no more than 50 nM and no more than 100 nM.
The corresponding values for `Cc1[nH]nc2c1-c1cc(F)c(NC(=O)[C@@H](NC(=O)c3conc3C3CC3)C(C3CC3)C3CC3)cc1COCC2` [compound 34] are no more than 50 nM and no more than 100 nM.
In the case of `Cc1[nH]nc2c1-c1cc(F)c(NC(=O)[C@@H](NC(=O)c3conc3C(C)C)C(C3CC3)C3CC3)cc1COCC2` [compound 35], the IC50 at Human IL-17A [1] was no more than 50 nM; on Human IL-17AF it was 100 to 500 nM.
Regarding `COCCn1nccc1C(=O)N[C@H](C(=O)Nc1cc2c(cc1F)-c1c(n[nH]c1C)CCOC2)C(C1CC1)C1CC1` [compound 57], the IC50 at Human IL-17A [1] was no more than 50 nM; at Human IL-17AF it was 100 to 500 nM.
In the case of `Cc1[nH]nc2c1-c1cc(F)c(NC(=O)[C@@H](NC(=O)c3ccnn3CC(C)(C)F)C(C3CC3)C3CC3)cc1COCC2` [compound 82], the figures for the IC50 at Human IL-17A [1] and on Human IL-17AF were 50 to 150 nM and 100 to 500 nM, respectively.
The corresponding values for `Cc1[nH]nc2c1-c1cc(F)c(NC(=O)[C@@H](NC(=O)c3ccnn3CC(F)(F)F)C(C3CC3)C3CC3)cc1COCC2` [compound 94] are no more than 50 nM and 100 to 500 nM.
Consider `COCCN1Cc2cc(NC(=O)[C@@H](NC(=O)c3ccnn3C3CC3)C(C3CC3)C3CC3)c(F)cc2-c2c(n[nH]c2C)CC1=O` [compound 139], for which, at Human IL-17AF, the IC50 lay within 100 to 500 nM.
Take `Cc1[nH]nc2c1-c1cnc(NC(=O)[C@@H](NC(=O)c3ccnn3C(C)C)C(C3CC3)C3CC3)cc1CN(Cc1ccccc1)CC2` [compound 184]: the IC50 at Human IL-17AF was in the range of 100 to 500 nM.
For `Cc1[nH]nc2c1-c1cc(F)c(NC(=O)[C@@H](NC(=O)c3ccnn3C(C)C)C(C3CC3)C3CC3)cc1CN(Cc1ccccc1)CC2` [compound 185], on Human IL-17AF, the IC50 lay within 100 to 500 nM.
Turning to `Cc1[nH]nc2c1-c1cnc(NC(=O)[C@@H](NC(=O)c3ccnn3C3CC3)C(C3CC3)C3CC3)cc1CN(C1CC1)CC2` [compound 219], the IC50 on Human IL-17A [2] was no more than 100 nM; on Human IL-17A [1] it was no more than 50 nM.
In the same order, the values of `CC(C)=C(F)C(=O)N[C@H](C(=O)Nc1cc2c(cc1F)-c1c(n[nH]c1C)CCOC2)C(C1CC1)C1CC1` [compound 232] are no more than 100 nM and no more than 50 nM.
For the compound `C=C(F)C(=O)N[C@H](C(=O)Nc1cc2c(cc1F)-c1c(n[nH]c1C)CCOC2)C(C1CC1)C1CC1` [compound 233], the results for the IC50 on Human IL-17A [2] and at Human IL-17A [1] were no more than 100 nM and no more than 50 nM, respectively.
In the same order, the values of `CC(C)=C(F)C(=O)N[C@H](C(=O)Nc1cc2c(cn1)-c1c(n[nH]c1C)CCOC2)C(C1CC1)C1CC1` [compound 244] are no more than 100 nM and no more than 50 nM.
In the same order, the values of `C=C(F)C(=O)N[C@H](C(=O)Nc1cc2c(cn1)-c1c(n[nH]c1C)CCOC2)C(C1CC1)C1CC1` [compound 245] are no more than 100 nM and no more than 50 nM.
